Results published in PubChem BioAssay AID1053204 (The Scripps Research Institute Molecular Screening Center, 2014).
Activity calls are given as the source filed them.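 The calls were made as follows: active = IC50 of 10 µM or lower; inactive = IC50 above 10 µM.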

What follows are compounds tested on T. brucei BSF 427 growth, AlamarBlue, 48 h (assay: trypanosome proliferation inhibition – absorbance, assay provider, round 3, counter-screen for T. brucei MetRS inhibitor project, dose response (AID 1053204)).

Structure (SMILES)	IC50
CCN(CC)C(=O)C(=O)c1cn(CC(=O)Nc2cc(Oc3ccccc3OC)cc(C(F)(F)F)c2)c2ccccc12	0.952 µM
CCN(CC)C(=O)C(=O)c1cn(CC(=O)Nc2cc(Oc3ccc(F)cc3)cc(C(F)(F)F)c2)c2ccccc12	1.42 µM
CCN(CC)C(=O)Cc1cn(CC(=O)Nc2cccc(C(F)(F)F)c2)c2ccccc12	> 10 µM (inactive)
O=C(Cn1cc(C(=O)C(=O)NCc2ccccc2)c2ccccc21)Nc1cc(Oc2ccccc2)cc(C(F)(F)F)c1	0.915 µM
CCN(CC)C(=O)C(=O)c1cn(CCNc2cc(Oc3ccccc3)cc(C(F)(F)F)c2)c2ccccc12	4.08 µM
Nc1c(Cl)ncnc1Nc1ccc(C(=O)O)cc1	> 10 µM (inactive)
CCN(CC)C(=O)C(=O)c1cn(CC(=O)Nc2cc(Oc3ccccc3F)cc(C(F)(F)F)c2)c2ccccc12	1.63 µM
CCN(CC)C(=O)C(=O)c1cn(CCNc2cccc(C(F)(F)F)c2)c2ccccc12	5.5 µM
O=C(Cc1ccc(Nc2nc3ccc(Br)cc3[nH]2)cc1)NCCc1cccs1	8.91 µM
CCN(CC)C(=O)C(=O)c1cn(CC(=O)Nc2cc(Oc3ccc(OC)cc3)cc(C(F)(F)F)c2)c2ccccc12	0.83 µM
